Values joined by “and” are separate entries in the source; they are usually repeats but may differ in a detail not shown here. Identical values can stand only once. Inconclusive results and toxic doses are left out. How the source made its calls: active means survival T/C of 150% or more; inactive means T/C below 125% in these data.
System: P388 leukemia ip, CD2F1 mice, survival T/C
Assay: NCI In Vivo Anticancer Drug Screen. Data for tumor model P388 Leukemia (intraperitoneal) in CD2F1 (CDF1) mice
Conditions: endpoint: median survival time, higher = longer survival
In short: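 Mice carrying the transplanted tumor received test compound or vehicle. Survival was recorded in each group, and the value is the treated-group measurement divided by that of the vehicle-treated control group.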

[1] = dose: 25.0 mg/kg/injection, schedule: Q01DX005 (ip), vehicle: Klucel (hydroxypropylcellulose) (HPC)
[2] = dose: 50.0 mg/kg/injection, schedule: Q01DX005 (ip), vehicle: Klucel (hydroxypropylcellulose) (HPC)
[3] = dose: 100.0 mg/kg/injection, schedule: Q01DX005 (ip), vehicle: Klucel (hydroxypropylcellulose) (HPC)
[4] = dose: 50.0 mg/kg/injection, schedule: Q01DX009 (ip), vehicle: saline with Tween-80
[5] = dose: 100.0 mg/kg/injection, schedule: Q01DX009 (ip), vehicle: saline with Tween-80
[6] = dose: 100.0 mg/kg/injection, schedule: Q04DX003 (ip), vehicle: saline with Tween-80
[7] = dose: 200.0 mg/kg/injection, schedule: Q04DX003 (ip), vehicle: saline with Tween-80
[8] = dose: 6.25 mg/kg/injection, schedule: Q01DX005 (ip), vehicle: saline with Tween-80
[9] = dose: 12.5 mg/kg/injection, schedule: Q01DX005 (ip), vehicle: saline with Tween-80
[10] = dose: 25.0 mg/kg/injection, schedule: Q01DX005 (ip), vehicle: saline with Tween-80
[11] = dose: 50.0 mg/kg/injection, schedule: Q01DX005 (ip), vehicle: saline with Tween-80
[12] = dose: 100.0 mg/kg/injection, schedule: Q01DX005 (ip), vehicle: saline with Tween-80
[13] = dose: 200.0 mg/kg/injection, schedule: Q01DX005 (ip), vehicle: saline with Tween-80
[14] = dose: 60.0 mg/kg/injection, schedule: Q01DX005 (ip), vehicle: Klucel (hydroxypropylcellulose) (HPC)
[15] = dose: 120.0 mg/kg/injection, schedule: Q01DX005 (ip), vehicle: Klucel (hydroxypropylcellulose) (HPC)
[16] = dose: 240.0 mg/kg/injection, schedule: Q01DX005 (ip), vehicle: Klucel (hydroxypropylcellulose) (HPC)
[17] = dose: 25.0 mg/kg/injection, schedule: Q01DX009 (ip), vehicle: saline with Tween-80
[18] = dose: 60.0 mg/kg/injection, schedule: Q01DX005 (ip), vehicle: saline with Tween-80
[19] = dose: 120.0 mg/kg/injection, schedule: Q01DX005 (ip), vehicle: saline with Tween-80
[20] = dose: 240.0 mg/kg/injection, schedule: Q01DX005 (ip), vehicle: saline with Tween-80
[21] = dose: 15.0 mg/kg/injection, schedule: Q01DX005 (ip), vehicle: saline with Tween-80
[22] = dose: 30.0 mg/kg/injection, schedule: Q01DX005 (ip), vehicle: saline with Tween-80
[23] = dose: 100.0 mg/kg/injection, schedule: Q04DX002 (ip), vehicle: saline with Tween-80
[24] = dose: 200.0 mg/kg/injection, schedule: Q04DX002 (ip), vehicle: saline with Tween-80
[25] = dose: 50.0 mg/kg/injection, schedule: Q01DX009 (ip), vehicle: Klucel (hydroxypropylcellulose) (HPC)
[26] = dose: 100.0 mg/kg/injection, schedule: Q01DX009 (ip), vehicle: Klucel (hydroxypropylcellulose) (HPC)
[27] = dose: 200.0 mg/kg/injection, schedule: Q01DX009 (ip), vehicle: Klucel (hydroxypropylcellulose) (HPC)

Measured: T/C

C/C(=N\O)C1CC2C=C(C#N)C1N(Cc1ccccc1)C2 (configuration not stated)
inactive: dose: 8.75 mg/kg/injection, schedule: Q01DX005 (ip), vehicle: Klucel (hydroxypropylcellulose) (HPC) 96 % of control | dose: 17.5 mg/kg/injection, schedule: Q01DX005 (ip), vehicle: Klucel (hydroxypropylcellulose) (HPC) 93 % of control | dose: 35.0 mg/kg/injection, schedule: Q01DX005 (ip), vehicle: Klucel (hydroxypropylcellulose) (HPC) 123 % of control

CCN(CC)CCOC(=O)Cc1cccc2c(=O)cc(-c3ccc(OC)cc3)oc12
inactive: dose: 12.5 mg/kg/injection, schedule: Q01DX005 (ip), vehicle: Klucel (hydroxypropylcellulose) (HPC) 113 % of control | [1] 113 % of control | [2] 98 % of control | [3] 121 % of control

Cc1ccc(N=C(N)NC#N)cc1
inactive: [4] 100 % of control | [5] 90 % of control | [6] 91 % of control | dose: 200.0 mg/kg/injection, schedule: Q01DX009 (ip), vehicle: saline with Tween-80 90 % of control | [7] 87 % of control

O=C(CCl)N1c2ccc3ccccc3c2Sc2ccc3ccccc3c21
inactive: [8] 96 % of control | [9] 101 % of control | [10] 95 % of control | [11] 98 % of control | [12] 97 % of control | [13] 105 % of control

C/C(=N\NC(=S)N1CC(C)OC(C)C1)c1cnccn1 (configuration not stated)
inactive: [9] 107 % of control | [10] 100 % of control | [11] 101 % of control and 97 % of control

NC12CCC(c3ccccc31)c1ccccc12
inactive: [14] 95 % of control | [15] 102 % of control | [16] 93 % of control

Nc1[nH]nc2nc(-c3ccccc3)cnc12
inactive: [17] 90 % of control | [4] 86 % of control | [5] 90 % of control | [6] 90 % of control | [7] 90 % of control | dose: 400.0 mg/kg/injection, schedule: Q04DX003 (ip), vehicle: saline with Tween-80 90 % of control

CC(C)c1ccc2nc3ccc(C(=O)NCCN4CCN(c5ccccc5)CC4)cn3c(=O)c2c1
inactive: [18] 97 % of control | [19] 89 % of control | [20] 92 % of control

c1ccc2c(CCN3CCCCC3)c[nH]c2c1
inactive: [21] 92 % of control | [22] 88 % of control | [18] 101 % of control and 87 % of control

O=[N+]([O-])CC(c1ccccc1)C(C[N+](=O)[O-])c1ccccc1 (configuration not stated)
inactive: [8] 100 % of control | [9] 87 % of control | [10] 95 % of control | [11] 91 % of control | [12] 91 % of control and 86 % of control

CC(CCC1(O)OC2CC3C4CC=C5CC(OC6OC(CO)C(OC7OC(C)C(O)C(O)C7O)C(O)C6O)CCC5(C)C4CCC3(C)C2C1(C)C)COC1OC(C)C(O)C(O)C1O (configuration not stated)
inactive: dose: 2.5 mg/kg/injection, schedule: Q01DX005 (ip), vehicle: Klucel (hydroxypropylcellulose) (HPC) 100 % of control | dose: 5.0 mg/kg/injection, schedule: Q01DX005 (ip), vehicle: Klucel (hydroxypropylcellulose) (HPC) 88 % of control

COc1cc2c(cc1OC)C13CCN4CC5=CCOC6CC(=O)N2C1C6C5CC43 (configuration not stated)
inactive: dose: 7.5 mg/kg/injection, schedule: Q01DX005 (ip), vehicle: saline with Tween-80 102 % of control | dose: 12.5 mg/kg/injection, schedule: Q01DX009 (ip), vehicle: saline with Tween-80 100 % of control | [21] 97 % of control | [17] 100 % of control | dose: 25.0 mg/kg/injection, schedule: Q04DX003 (ip), vehicle: saline sonified 100 % of control | [22] 100 % of control | [4] 100 % of control | dose: 50.0 mg/kg/injection, schedule: Q04DX003 (ip), vehicle: saline sonified 95 % of control | [18] 93 % of control

C=C1C(=C)C2OC1c1cc3c(cc12)C(=O)c1ccccc1C3=O
inactive: [11] 90 % of control | [12] 109 % of control | [13] 114 % of control

CC1(C2CCC3(C)OC3C2)CO1 (configuration not stated)
inactive: [11] 100 % of control | [12] 100 % of control | [13] 100 % of control

O=c1n(-c2ccccc2)c(=O)n2n1C1C3C4CCC1C4(Cl)C32 (configuration not stated)
inactive: dose: 100.0 mg/kg/injection, schedule: Q01DX001 (ip), vehicle: saline with Tween-80 100 % of control | dose: 200.0 mg/kg/injection, schedule: Q01DX001 (ip), vehicle: saline with Tween-80 94 % of control | dose: 400.0 mg/kg/injection, schedule: Q01DX001 (ip), vehicle: saline with Tween-80 91 % of control

COc1ccc(C(=S)NC(O)C(=O)c2ccc(Cl)cc2)cc1OC (configuration not stated)
inactive: [4] 103 % of control | [5] 103 % of control

O=[N+]([O-])c1ccc(N=Nc2c(-c3ccccc3)nn(C(=S)S)c2-c2ccccc2)cc1
inactive: [23] 92 % of control | [24] 97 % of control | dose: 400.0 mg/kg/injection, schedule: Q04DX002 (ip), vehicle: saline with Tween-80 101 % of control

O=C1C(Cl)=C(NC2C(O)OC(CO)C(O)C2O)C(=O)C(Cl)=C1NC1C(O)OC(CO)C(O)C1O (configuration not stated)
inactive: [11] 96 % of control | [12] 90 % of control | [13] 97 % of control

CCOC(=O)CS(=O)(=O)CCS(=O)(=O)CC(=O)OCC
inactive: dose: 50.0 mg/kg/injection, schedule: Q01DX009 (ip), vehicle: saline 95 % of control | dose: 100.0 mg/kg/injection, schedule: Q01DX009 (ip), vehicle: saline 97 % of control | dose: 200.0 mg/kg/injection, schedule: Q01DX009 (ip), vehicle: saline 102 % of control

CC1=CC(=O)C2OC(=O)CC3C=CCC1C32C (configuration not stated)
inactive: [1] 99 % of control | [2] 103 % of control | [3] 103 % of control

N#CC1C(=O)NC(=O)C(C#N)C1C(Cl)(Cl)Cl (configuration not stated)
inactive: [25] 100 % of control | [26] 93 % of control | [27] 102 % of control

CCOC(=O)/C(=C(/[S-])SC)[n+]1ccc(C)cc1
inactive: [23] 101 % of control | [24] 99 % of control

COc1ccc(CSC(=S)Nc2ccc(F)cc2F)cc1
inactive: [25] 99 % of control | dose: 50.0 mg/kg/injection, schedule: Q01DX009 (ip), vehicle: suspension in saline 106 % of control | [26] 107 % of control | dose: 100.0 mg/kg/injection, schedule: Q01DX009 (ip), vehicle: suspension in saline 100 % of control | [27] 112 % of control | dose: 200.0 mg/kg/injection, schedule: Q01DX009 (ip), vehicle: suspension in saline 98 % of control

CCC(=O)N1C(=O)C(C)C23c4cc(OC)c(OC)cc4C(=O)N2CCCN13 (configuration not stated)
inactive: [14] 100 % of control | [15] 94 % of control | [16] 90 % of control

CSCc1cc(CO)no1
inactive: [18] 100 % of control | [19] 99 % of control | [20] 106 % of control

From PubChem BioAssay AID330 (DTP/NCI, 2004)
